# According to publication PMC11111404, “Discovery of potent small-molecule inhibitors of lipoprotein(a) formation” (Nature, 2024):
# Values joined by “and” are separate entries in the source; they are usually repeats but may differ in a detail not shown here. Equal values may be shown once.
# Test system: Lp(a)
# Experiment: Lp(a) levels in cynomolgus monkeys
# Type: in vivo, cynomolgus monkey (Macaca fascicularis)
# Set-up: key to Mean_pCFB_vs_Veh / Mean_pCFB_vs_Veh (Lp(a)): % change from pre-dose, treated group compared with vehicle; key to Mean_pCFB / Mean_pCFB (Lp(a)): % change in Lp(a) from before dosing; Lp(a): unit not given here
# Conditions: cynomolgus monkey; for Mean_pCFB_vs_Veh (Lp(a)): difference vs vehicle; for Mean_pCFB (Lp(a)): group mean; for Lp(a) / pCFB (Lp(a) pct_chng_from_baseline): individual animals, 1 mg/kg
# Experimental: Female or male Chinese Macaca fascicularis cynomolgus monkeys (as described in the figure legends) of unspecified ages with body weight ranging from 2.0 kg to 5.0 kg were housed in cages with a standard light cycle (12-h light, 12-h dark) at room temperature (20–26 °C); the relative humidity ranged from 30% to 70%. Monkeys were given fruits, vegetables or dietary enrichment as a form of environmental enrichment, and various cage enrichment devices. Purina Lab diet 5048C was provided BID and individual monkeys were identified by cage card. The monkeys were randomized to treatment groups by body weight and baseline plasma Lp(a) concentration, as determined by a commercially available Randox assay (Randox LP2757), using a BRAT for the study. In an example cynomolgus monkey study in which 39 monkeys were prescreened for baseline Lp(a) levels, the average Lp(a) level was 350 ± 57 µg ml^−1 (range 53–1,667 µg ml^−1). Monkeys were dosed orally with vehicle (purified water) or compounds QD or BID for 14 days, at dose levels and frequencies as previously described for each compound. Plasma samples were collected on days before dosing to establish baseline Lp(a) and after the morning dose during the study. Lp(a) levels were measured by an investigator who was blinded to group allocation using the Randox assay, and were quantified relative to the calibrator series (Randox LP3404). Data were analysed in GraphPad Prism v.9.5.1. The Lp(a) percentage change from before dosing in non-human primates was analysed by repeated measures ANOVA in SAS v.9.4 (SAS). At each time point, the Lp(a) percentage change for each treated group was compared with vehicle by the Bonferroni method.
smiles,measurement,setting,value
O=C(O)[C@@H](Cc1cccc(CN(Cc2cccc(C[C@H](C(=O)O)[C@H]3CCNC3)c2)Cc2cccc(C[C@H](C(=O)O)[C@H]3CCNC3)c2)c1)[C@H]1CCNC1 [LY3473329],Mean_pCFB_vs_Veh (Lp(a)),"1mpk, D01",4.27
same,Mean_pCFB_vs_Veh (Lp(a)),"1mpk, D03",-6.51
same,Mean_pCFB_vs_Veh (Lp(a)),"1mpk, D05",-6.39
same,Mean_pCFB_vs_Veh (Lp(a)),"1mpk, D09",-13.72
same,Mean_pCFB_vs_Veh (Lp(a)),"1mpk, D14",-22.18
same,Mean_pCFB_vs_Veh (Lp(a)),"10mpk, D01",3.91
same,Mean_pCFB_vs_Veh (Lp(a)),"10mpk, D03",-29.92
same,Mean_pCFB_vs_Veh (Lp(a)),"10mpk, D05",-32.94
same,Mean_pCFB_vs_Veh (Lp(a)),"10mpk, D09",-36.99
same,Mean_pCFB_vs_Veh (Lp(a)),"10mpk, D14",-48.11
same,Mean_pCFB_vs_Veh (Lp(a)),"100mpk, D01",-15.98
same,Mean_pCFB_vs_Veh (Lp(a)),"100mpk, D03",-38.35
same,Mean_pCFB_vs_Veh (Lp(a)),"100mpk, D05",-32.35
same,Mean_pCFB_vs_Veh (Lp(a)),"100mpk, D09",-50.18
same,Mean_pCFB_vs_Veh (Lp(a)),"100mpk, D14",-61.77
same,Mean_pCFB (Lp(a)),"1mpk, D01",-0.85
same,Mean_pCFB (Lp(a)),"1mpk, D03",-12.33
same,Mean_pCFB (Lp(a)),"1mpk, D05",-14.05
same,Mean_pCFB (Lp(a)),"1mpk, D09",-21.85
same,Mean_pCFB (Lp(a)),"1mpk, D14",-34.04
same,Mean_pCFB (Lp(a)),"10mpk, D01",-1.2
same,Mean_pCFB (Lp(a)),"10mpk, D03",-35.74
same,Mean_pCFB (Lp(a)),"10mpk, D05",-40.6
same,Mean_pCFB (Lp(a)),"10mpk, D09",-45.13
same,Mean_pCFB (Lp(a)),"10mpk, D14",-59.97
same,Mean_pCFB (Lp(a)),"100mpk, D01",-21.09
same,Mean_pCFB (Lp(a)),"100mpk, D03",-44.17
same,Mean_pCFB (Lp(a)),"100mpk, D05",-40.01
same,Mean_pCFB (Lp(a)),"100mpk, D09",-58.32
same,Mean_pCFB (Lp(a)),"100mpk, D14",-73.62
same,Lp(a),"1mpk group, Day 1, Pre dose (baseline)",115.019 and 15.737 and 53.63 and 67.735 and 63.938
same,Lp(a),"1mpk, Day 1, 4hr",97.491 and 117.597 and 16.395 and 53.808 and 66.137 and 65.184
same,pCFB (Lp(a) pct_chng_from_baseline),"1mpk, Day 1",-11.4161 and 2.241 and 4.181 and 0.3319 and -2.359 and 1.949
same,Lp(a),"1mpk, Day 3, 4hr",91.721 and 112.368 and 11.704 and 47.474 and 63.489 and 56.499
same,pCFB (Lp(a) pct_chng_from_baseline),"1mpk, Day 3",-16.6589 and -2.305 and -25.6275 and -11.4787 and -6.269 and -11.6347
same,Lp(a),"1mpk, Day 5, 4hr",85.692 and 109.155 and 11.192 and 45.131 and 70.165 and 53.752
same,pCFB (Lp(a) pct_chng_from_baseline),"1mpk, Day 5",-22.1371 and -5.098 and -28.881 and -15.8475 and 3.588 and -15.9311
same,Lp(a),"1mpk, Day 9, 4hr",81.717 and 123.954 and 9.293 and 31.114 and 64.385
